The subject of one experiment is granulomas. Particulars: laboratory rats; cited from earlier work.
Another experiment concerns adjuvant arthritis. Conditions: rat adjuvant arthritis; cited from earlier work.
The next experiment concerns endotoxin-induced shock. Particulars: murine model of endotoxin-induced shock; cited from earlier work.
Experiment [1] relates to collagen-induced arthritis. Conditions: mouse collagen-induced arthritis; cited from earlier work.
The next experiment concerns the target MAPKAPK2 (MK-2) (Homo sapiens, UniProt P49137). The experiment in a line: Determination of MK-2 IC50 (HSP-peptide phosphorylation, anion exchange resin capture assay). It counts as biochemical. Conditions: Table 1, phenoxypyrazole MK-2 inhibitors; read-out: MK-2 Avg, IC50. Summed up: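 MAPKAPK2, preactivated by p38α with 0.25 mM ATP for 1 h at 30° C, used at 15 nM to phosphorylate HSP-peptide with 0.03 mM ATP plus [γ33P]ATP, pH 7.5, 2% DMSO, 30 min at 30° C. Labelled peptide counted after anion-exchange resin capture; IC50 from six ten-fold dilutions, triplicate.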

A further experiment has as its target MK-3 (Homo sapiens, UniProt Q16644). The experiment in a line: MK-3 inhibition IC50 (similar method to MK-2, with appropriate modifications). It counts as biochemical. Particulars: Table 1, phenoxypyrazole MK-2 inhibitors; read-out: MK-3 Avg. IC50.

Here are results for 4 compounds from patent US20040127492A1 (Pharmacia Corporation, priority 2002, published 2004).

Structures are written as SMILES.

In general, IC50 refers to the point on the concentration scale where inhibition reaches its midpoint.

Sequence of MK-3 (Q16644 whole entry, species assumed): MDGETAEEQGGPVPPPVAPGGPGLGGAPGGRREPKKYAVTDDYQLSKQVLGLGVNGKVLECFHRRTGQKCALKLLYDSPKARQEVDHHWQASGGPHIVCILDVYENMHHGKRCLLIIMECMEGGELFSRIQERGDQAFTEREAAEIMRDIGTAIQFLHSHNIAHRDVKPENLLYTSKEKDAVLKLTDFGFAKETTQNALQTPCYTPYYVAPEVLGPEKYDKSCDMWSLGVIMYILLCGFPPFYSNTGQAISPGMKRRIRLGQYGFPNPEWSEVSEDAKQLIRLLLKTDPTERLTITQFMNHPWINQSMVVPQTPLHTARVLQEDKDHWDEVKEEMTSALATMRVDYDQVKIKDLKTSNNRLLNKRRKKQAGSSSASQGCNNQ
Sequence of MAPKAPK2 (MK-2) (P49137 whole entry, species assumed): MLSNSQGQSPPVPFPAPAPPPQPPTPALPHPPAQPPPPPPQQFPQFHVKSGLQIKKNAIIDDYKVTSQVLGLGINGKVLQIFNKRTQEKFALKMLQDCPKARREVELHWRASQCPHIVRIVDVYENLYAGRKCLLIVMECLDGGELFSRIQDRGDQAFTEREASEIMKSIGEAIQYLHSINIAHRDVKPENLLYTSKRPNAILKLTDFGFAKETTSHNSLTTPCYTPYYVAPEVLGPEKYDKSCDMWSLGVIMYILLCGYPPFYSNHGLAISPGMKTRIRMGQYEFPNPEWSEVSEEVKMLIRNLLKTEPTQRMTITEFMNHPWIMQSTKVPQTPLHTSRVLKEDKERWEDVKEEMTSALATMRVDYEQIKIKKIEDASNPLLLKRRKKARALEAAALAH

As for `Nc1nccc(-c2c(-c3ccc(F)cc3)ncn2C2CCNCC2)n1` [SB 220025], the “vascular density of granulomas” value with granulomas is reported as “significant dose-dependent decrease”.
Turning to `C[S+]([O-])c1ccc(-c2nc(-c3ccncc3)c(-c3ccc(F)cc3)[nH]2)cc1` (centres unmarked) [SB203580], the development of arthritis result (in the experiment with adjuvant arthritis; in experiment [1]) was “inhibit the development” each time. The mortality result in the experiment with endotoxin-induced shock was “reduce mortality”.
As for `COc1ccc2c(c1)CCc1c(C(=O)O)nn(-c3ccc(S(C)(=O)=O)cc3)c1-2` [Example 165], the IC50 on MAPKAPK2 (MK-2) and at MK-3 was more than 200 µM throughout.
Consider `CCOC(=O)c1[nH]nc2c1CCc1c-2ccc(O)c1Br` [Example 53], for which the values for the IC50 at MAPKAPK2 (MK-2) and at MK-3 were 116 µM and more than 200 µM, respectively.
